Assay results reported in ChEMBL document CHEMBL5537157, “Selective Antitumor Effect and Lower Toxicity of Mitochondrion-Targeting Derivatization of Triptolide” (J Med Chem, 2024).
Activity calls are given as the source filed them. The rule behind the calls is not given here.

Tests used:
[1] = Toxicity in zebrafish embryo assessed as death rate at 4 uM pretreated with compound followed by replacement of growth liquid by microscopy (reference value: 2.22 +/- 3.84 %); design: species or system Danio rerio; conditions: in vivo, read-out: Activity
[2] = Toxicity in zebrafish at 2 uM; design: species or system Danio rerio; conditions: in vivo
[3] = Drug accumulation in mitochondria of human NCI-H1975 cells at 600 nM incubated for 5 hrs by Red CMXRos probe based analysis; assay type: ADME; conditions: nci-h1975, 5 h, 0.6 µM
[4] = tested on: NCI-H1975; test: Inhibition of cell migration in human NCI-H1975 cells at 2.5 to 5 nM incubated upto 72 hrs by scratch healing assay; assay type: functional, cell-based; conditions: dose 2.5-5 nM
[5] = Toxicity in zebrafish embryo assessed as damage effect in liver development at 0.5 uM with replacement of new growth solution daily by fluorescence microscopy relative to control; assay type: tissue-based, Danio rerio; conditions: in vivo
[6] = Toxicity in zebrafish embryo assessed as degree of periocular edema at 1 uM pretreated with compound followed by replacement of growth liquid by microscopy (reference value: 0.00 %); design: species or system Danio rerio; conditions: in vivo
[7] = Toxicity in zebrafish embryo assessed as death rate at 0.5 uM pretreated with compound followed by replacement of growth liquid by microscopy (reference value: 0.00 %); design: species or system Danio rerio; conditions: in vivo, read-out: Activity
[8] = tested on: NCI-H1975; test: Cytotoxicity against human NCI-H1975 cells assessed as inhibition of cell viability incubated for 48 hrs by MTT assay; assay type: functional, cell-based; conditions: NCI-H1975, 48 h
[9] = Toxicity in zebrafish embryo assessed as liver development at 0.25 uM with replacement of new growth solution daily by fluorescence microscopy (reference value: 100.00 +/- 8.64 %); assay type: tissue-based, Danio rerio; conditions: in vivo
[10] = Developmental toxicity in zebrafish AB zygotes assessed as animal mortality at 4 uM treated at 6 hrs post-fertilization measured at 24 to 72 hrs post-fertilization; design: species or system Danio rerio; conditions: in vivo, time 18-66 hrs
[11] = Toxicity in zebrafish embryo assessed as death rate at 1 uM pretreated with compound followed by replacement of growth liquid by microscopy (reference value: 2.22 +/- 3.84 %); design: species or system Danio rerio; conditions: in vivo, read-out: Activity
[12] = Toxicity in zebrafish embryo assessed as liver development at 1 uM with replacement of new growth solution daily by fluorescence microscopy (reference value: 100.00 +/- 8.64 %); assay type: tissue-based, Danio rerio; conditions: in vivo
[13] = Toxicity in zebrafish embryo assessed as liver function at 0.25 uM with replacement of new growth solution daily by fluorescence microscopy (reference value: 100 +/- 8.89 %); assay type: tissue-based, Danio rerio; conditions: in vivo
[14] = Toxicity in zebrafish embryo assessed as degree of periocular edema at 2 uM pretreated with compound followed by replacement of growth liquid by microscopy (reference value: 0.00 %); design: species or system Danio rerio; conditions: in vivo
[15] = Toxicity in zebrafish embryo assessed as liver development at 0.5 uM with replacement of new growth solution daily by fluorescence microscopy (reference value: 100.00 +/- 8.64 %); assay type: tissue-based, Danio rerio; conditions: in vivo
[16] = Toxicity in zebrafish embryo assessed as damage effect in liver function at 1 uM with replacement of new growth solution daily by fluorescence microscopy relative to control; design: species or system Danio rerio; conditions: in vivo
[17] = Toxicity in zebrafish embryo assessed as degree of periocular edema at 0.5 uM pretreated with compound followed by replacement of growth liquid by microscopy (reference value: 0.00 %); design: species or system Danio rerio; conditions: in vivo
[18] = Toxicity in zebrafish embryo assessed as liver function at 0.5 uM with replacement of new growth solution daily by fluorescence microscopy (reference value: 100 +/- 8.89 %); assay type: tissue-based, Danio rerio; conditions: in vivo
[19] = Drug accumulation in mitochondria of human NCI-H1975 cells at 10 uM incubated for 7 hrs by HPLC analysis; assay type: ADME; conditions: nci-h1975, 7 h
[20] = Renal toxicity in zebrafish assessed as FITC dye residue at 2 uM treated for 24 hrs followed by dye treatment measured after 6 hrs by fluorescence microscopy; design: species or system Danio rerio; conditions: in vivo, 30 h
[21] = Toxicity in zebrafish embryo assessed as damage effect in liver function at 0.25 uM with replacement of new growth solution daily by fluorescence microscopy relative to control; assay type: tissue-based, Danio rerio; conditions: in vivo
[22] = Toxicity in zebrafish embryo assessed as damage effect in liver function at 0.5 uM with replacement of new growth solution daily by fluorescence microscopy relative to control; assay type: tissue-based, Danio rerio; conditions: in vivo
[23] = Toxicity in zebrafish embryo assessed as death rate at 2 uM pretreated with compound followed by replacement of growth liquid by microscopy (reference value: 2.22 +/- 3.84 %); design: species or system Danio rerio; conditions: in vivo, read-out: Activity
[24] = Toxicity in zebrafish embryo assessed as damage effect in liver development at 0.25 uM with replacement of new growth solution daily by fluorescence microscopy relative to control; design: species or system Danio rerio; conditions: in vivo
[25] = Toxicity in zebrafish embryo assessed as degree of periocular edema at 4 uM pretreated with compound followed by replacement of growth liquid by microscopy (reference value: 0.00 %); design: species or system Danio rerio; conditions: in vivo, 24 h
[26] = tested on: NCI-H1975; test: Inhibition of cell viability in human NCI-H1975 cells assessed as effect on cell index at 30 nM by real-time cell analysis; assay type: functional, cell-based
[27] = Developmental toxicity in zebrafish AB zygotes assessed as decrease in hatching rate at 0.25 to 1 uM treated at 6 hrs post-fertilization measured at 24 to 72 hrs post-fertilization; design: species or system Danio rerio; conditions: in vivo, dose lower 0.25 µM, time lower 18 hrs, dose upper 1 µM, time upper 66 hrs
[28] = Developmental toxicity in zebrafish AB zygotes assessed as decrease in body length at 0.25 to 4 uM treated at 6 hrs post-fertilization measured at 24 to 72 hrs post-fertilization; design: species or system Danio rerio; conditions: in vivo, dose lower 0.25 µM, time lower 18 hrs, dose upper 4 µM, time upper 66 hrs
[29] = Renal toxicity in zebrafish assessed as FITC dye residue at 0.25 to 1 uM treated for 24 hrs followed by dye treatment measured after 6 hrs by fluorescence microscopy; design: species or system Danio rerio; conditions: in vivo, 30 h, dose 0.25-1 µM
[30] = tested on: NCI-H460; test: Cytotoxicity against human NCI-H460 cells assessed as cell growth inhibition at 4.5 to 10 nM incubated for 48 hrs by MTT assay relative to control; assay type: functional; conditions: dose 4.5-10 nM
[31] = Renal toxicity in zebrafish assessed as increase in TNF-alpha expression at 0.5 to 2 uM treated for 48 hrs by RT-qPCR analysis; design: species or system Danio rerio; conditions: in vivo, dose 0.5-2 µM
[32] = Cytotoxicity against human BEAS-2B cells assessed as cell growth inhibition at 4.5 to 10 nM incubated for 48 hrs by MTT assay relative to control; assay type: toxicity, cell-based; conditions: dose 4.5-10 nM, read-out: Imax
[33] = tested on: PC-3; test: Cytotoxicity against human PC-3 cells assessed as cell growth inhibition at 4.5 to 10 nM incubated for 48 hrs by MTT assay relative to control; assay type: functional; conditions: dose 4.5-10 nM
[34] = Toxicity in zebrafish xenografted with human NCI-H1975 cells assessed as animal death at 2 uM; design: species or system Danio rerio
[35] = tested on: MCF7; test: Cytotoxicity against human MCF7 cells assessed as cell growth inhibition incubated for 48 hrs by MTT assay; assay type: functional, cell-based
[36] = Renal toxicity in zebrafish assessed as increase in Kim1 expression at 0.5 to 2 uM treated for 48 hrs by RT-qPCR analysis; design: species or system Danio rerio; conditions: in vivo, dose 0.5-2 µM
[37] = Developmental toxicity in zebrafish AB zygotes assessed as decrease in hatching rate at 1 to 4 uM treated at 6 hrs post-fertilization measured at 24 to 72 hrs post-fertilization; design: species or system Danio rerio; conditions: in vivo, dose lower 1 µM, time lower 18 hrs, dose upper 4 µM, time upper 66 hrs

SMILES | mortality at 4 µM [1] [%] | Activity [2] | inhibition [4] | Activity [5] [%] | Activity [6] [%] | mortality at 24 h, 0.5 µM [7] [%] | Activity [9] [%] | Activity [10] | mortality at 1 µM [11] [%] | Activity [13] [%] | Activity [14] [%] | Activity [15] [%] | Activity [17] [%] | Activity [18] [%] | Drug uptake [19] | Activity [21] [%] | Activity [22] [%] | mortality at 2 µM [23] [%] | Activity [24] [%] | other results
CC(C)[C@]12O[C@H]1[C@@H]1O[C@]13[C@]1(O[C@H]1C[C@H]1C4=C(CC[C@@]13C)C(=O)OC4)[C@@H]2OC(=O)CCCCCCCC[n+]1ccc(/C=C/c2c[nH]c3ccccc23)cc1.[Br-] | 11.1 | Non-Toxic | Active | 15.05 | 13.33 | 2.22 | 95.17 | Non-Toxic | 6.67 | 61.46 | 33.33 | 85 | 2.22 | 51.53 | Active | 38.54 | 48.47 | 6.67 | 4.83 | Drug uptake [3]: Active; IC50 [8]: 210 nM; Activity [12]: 76.24%; Activity [16]: 72.82%; Activity [20]: Toxic; Activity [25]: 100%; inhibition [26]: Active; Activity [27]: Non-Toxic
CC(C)[C@]12O[C@H]1[C@@H]1O[C@@]13[C@@]1(C)CCC4=C(COC4=O)[C@@H]1C[C@@H]1O[C@@]13C2=O [TRIPTONIDE] | 22.2 | Toxic | Active | 54.62 | 13.33 | 2.22 | 87.8 | Toxic | 11.1 | 50.55 | 48.89 | 45.38 | 6.67 | 23.09 | Active | 49.45 | 76.91 | 13.3 | 12.2 | Activity [28]: Toxic; Activity [29]: Toxic; Imax [30]: ~40%; Activity [31]: Toxic; Emax at 48 h [32]: ~40%; Imax [33]: ~60%; Activity [34]: Toxic; inhibition [35]: Dose-Dependent Effect; Activity [36]: Toxic; Activity [37]: Toxic
